18 molecules from patent publication US9999616B2 (ZENITH EPIGENETICS LTD., priority 2013, dated 2018) can be followed below.

Some results are limits rather than exact numbers.

The test system of series [1] is c-myc in Human AML MV4-11 cells. Description: Inhibition of cMYC expression (mRNA, real-time PCR) in MV4-11 cells. It is filed as cell-based. Particulars: 3 h treatment, cMYC mRNA by real-time PCR. The method in brief:
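MV4-11 cells in IMDM with 10% FBS were treated with increasing compound concentrations (DMSO 0.1%) for 3 h at 37 °C, in triplicate. Isolated mRNA was quantified by one-step TaqMan RT-qPCR, cMYC Ct normalized to cyclophilin, and fold expression given relative to DMSO control.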
(Real-time PCR tracks product formation cycle by cycle.)

The test system of series [2] is Human AML MV-4-11 cells. Description: Inhibition of cell proliferation in MV4-11 cells (CellTiter Aqueous One). The format is cell-based. Conditions: MV4-11, 72 h. The method in brief:
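MV4-11 cells, 5×10^4 per well in IMDM with 10% FBS, were exposed to increasing compound concentrations or 0.1% DMSO for 72 h at 37 °C in triplicate. Viability was read by MTS (CellTiter Aqueous One) absorbance at 490 nm after 3-4 h. IC50 was derived from background-corrected signal relative to DMSO.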

Series [3] has as its system hIL-6 mRNA. Description: Inhibition of hIL-6 mRNA transcription in LPS-stimulated U937 macrophages. The format is cell-based, Human. Conditions: Homo sapiens, U-937, PMA-differentiated U937 cells, 1 h pretreatment, LPS 3 h, read-out: IL-6 activity. The method in brief:
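PMA-differentiated U937 macrophages (60 ng/mL PMA, 3 days) pretreated 1 h with compound in 0.1% DMSO, then stimulated with 1 ug/mL E. coli LPS for 3 h at 37° C. IL-6 mRNA quantified by one-step TaqMan qRT-PCR, normalized to cyclophilin; fold expression relative to control, triplicate wells.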

In series [4] the test system is hIL-17 mRNA. Nature of the series: Inhibition of hIL-17 mRNA transcription in OKT3-stimulated peripheral blood mononuclear cells. The format is cell-based. Particulars: human PBMC, OKT3 stimulation 6 h, read-out: IL-17 Activity. Here is the method: Human peripheral blood mononuclear cells were plated (2.0×10^5 cells per well) in a 96-well plate in 45 μL OpTimizer T Cell expansion media (Life Technologies) containing 20 ng/ml IL-2 and penicillin/streptomycin. The cells were treated with increasing concentrations of the test compound or DMSO (0.1%), and incubated at 37° C., 5% CO2 for 1 h before addition of 10× stock OKT3 antibody at 10 ug/ml in media. Triplicate wells were used for each concentration. Cells were incubated at 37° C., 5% CO2 for 6 h before the cells were harvested. At time of harvest, cells were pelleted by centrifugation at 800 rpm for 5 min. Cells were harvested using the mRNA Catcher PLUS kit according to manufacturer's instructions. The eluted mRNA was then used in a one-step quantitative real-time PCR reaction, using components of the RNA UltraSense™ One-Step Kit (Life Technologies) together with Applied Biosystems TaqMan® primer-probes for hIL-17 and Cyclophilin. Real-time PCR plates were run on a ViiA™7 real time PCR machine (Applied Biosystems), data was analyzed, normalizing the Ct values for hIL-17 to an internal control, prior to determining the fold induction of each unknown sample, relative to the control.

In series [5] the target is Brd4 bromodomain 1 (BRD4(1)) (Homo sapiens, UniProt O60885). Description: Inhibition of tetra-acetylated histone H4 binding to Brd4 bromodomain 1, measured by FRET (HTRF). Also on record: made in house; host or cells: E. coli BL21(DE3). Conditions: 2 h at room temperature. The method in brief: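 N-terminally His-tagged bromodomain (200 nM), expressed in E. coli and purified by Ni affinity and size exclusion, was incubated with biotinylated tetra-acetylated H4 peptide (25-50 nM), Eu-cryptate streptavidin and XL665 anti-His in HEPES pH 7.4 buffer with 0.2% DMSO. Reactions ran 2 h at room temperature. IC50 came from the 665/620 nm fluorescence decrease.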
In general terms: In TR-FRET formats the signal depends on donor and acceptor labels being close together.

Take `Cc1ccncc1-c1cc(-c2c(C)noc2C)cc2[nH]cnc12` [Example Compound 20, 3,5-dimethyl-4-(4-(4-methylpyridin-3-yl)-1H-benzo[d]imidazol-6-yl)isoxazole]: the IC50 in series [1] was 300 to 3000 nM; in series [2], 300 to 3000 nM; in series [3], at most 300 nM; in series [4], 300 to 3000 nM; in series [5] it was at most 300 nM.
Regarding `Cc1noc(C)c1-c1cc(-c2c(C)noc2C)c2[nH]ncc2c1` [Example Compound 21, 4,4′-(1H-indazole-5,7-diyl)bis(3,5-dimethylisoxazole)], the IC50 was 300 to 3000 nM in series [1]; 300 to 3000 nM in series [2]; 300 to 3000 nM in series [3]; 300 to 3000 nM in series [4]; at most 300 nM in series [5].
On to `Cc1noc(C)c1Nc1cc(-c2c(C)noc2C)cc2[nH]cnc12` [Example Compound 42, N-(6-(3,5-dimethyl-isoxazol-4-yl)-1H-benzo[d]imidazol-4-yl)-3,5-dimethyl-isoxazol-4-amine], for which the IC50 was at most 300 nM in series [1]; at most 300 nM in series [2]; at most 300 nM in series [3]; 300 to 3000 nM in series [4]; at most 300 nM in series [5].
Consider `Cc1nc2c(-c3cnccc3C(F)(F)F)cc(-c3c(C)noc3C)cc2[nH]1` [Example Compound 50, 3,5-dimethyl-4-(2-methyl-4-(4-(trifluoro-methyl)pyridin-3-yl)-1H-benzo[d]imidazol-6-yl)isoxazole], for which the IC50 in series [1] was 300 to 3000 nM; in series [2] it was at most 300 nM; in series [3] it was at most 300 nM; in series [4], 300 to 3000 nM; in series [5] it was at most 300 nM.
As for `Cc1nc2c(-c3c(C(F)(F)F)nn(C)c3C)cc(-c3c(C)noc3C)cc2[nH]1` [Example Compound 66, 4-(4-(1,5-dimethyl-3-(trifluoro-methyl)-1H-pyrazol-4-yl)-2-methyl-1H-benzo[d]imidazol-6-yl)-3,5-dimethyl-isoxazole], the IC50 in series [1] was 300 to 3000 nM; in series [2], at most 300 nM; in series [3], at most 300 nM; in series [4], at most 300 nM; in series [5] it was at most 300 nM.
For the molecule `Cc1nc2c(-c3ccc(N)nc3C)cc(-c3c(C)noc3C)cc2[nH]1` [Example Compound 68, 5-(6-(3,5-dimethyl-isoxazol-4-yl)-2-methyl-1H-benzo[d]imidazol-4-yl)-6-methyl-pyridin-2-amine], the IC50 in series [1], in series [2], in series [3], in series [4] and in series [5] was at most 300 nM in each case.
In the case of `Cc1noc(C)c1-c1cc(-c2cccc(C(N)=O)c2C)c2nc[nH]c2c1` [Example Compound 73, 3-(6-(3,5 dimethyl-isoxazol-4-yl)-1H-benzo[d]imidazol-4-yl)-2-methyl-benzamide], the IC50 in series [1] is at most 300 nM; in series [2], at most 300 nM; in series [3], at most 300 nM; in series [4], 300 to 3000 nM; in series [5] it was at most 300 nM.
Consider `CCOc1nc2c(-c3cccnc3C)cc(-c3c(C)noc3C)cc2[nH]1` [Example Compound 81, 4-(2-ethoxy-4-(2-methylpyridin-3-yl)-1H-benzo[d]imidazol-6-yl)-3,5-dimethyl isoxazole], for which the IC50 is at most 300 nM in series [1]; at most 300 nM in series [2]; 300 to 3000 nM in series [3]; at most 300 nM in series [4]; at most 300 nM in series [5].
In the case of `Cc1nc2c(-c3cc(F)ccc3C)cc(-c3c(C)noc3C)cc2[nH]1` [Example Compound 92, 4-(4-(5-fluoro-2-methyl-phenyl)-2-methyl-1H-benzo[d]imidazol-6-yl)-3,5-dimethyl isoxazole], the IC50 in series [1] was 300 to 3000 nM; in series [2], 300 to 3000 nM; in series [3], at most 300 nM; in series [4], 300 to 3000 nM; in series [5] it was at most 300 nM.
As for `Cc1nc2c(-c3ccc4sncc4c3)cc(-c3c(C)noc3C)cc2[nH]1` [Example Compound 137, 4-(4-(benzo[d]isothiazol-5-yl)-2-methyl-1H-benzo[d]imidazol-6-yl)-3,5-dimethyl isoxazole], the IC50 was 300 to 3000 nM in series [1]; 300 to 3000 nM in series [2]; 300 to 3000 nM in series [3]; 300 to 3000 nM in series [4]; at most 300 nM in series [5].
With `Cc1noc(C)c1-c1cc(-c2c(C)noc2C)c2c(C)c[nH]c2c1` [Example Compound 140, 4,4′-(3-methyl-1H-indole-4,6-diyl)bis(3,5-dimethylisoxazole)], the IC50 in series [1] was at most 300 nM; in series [2] it was at most 300 nM; in series [3], at most 300 nM; in series [4], 300 to 3000 nM; in series [5], at most 300 nM.
Turning to `Cc1nc2c(Nc3c(C)nn(C)c3C)cc(-c3c(C)noc3C)cc2[nH]1` [Example Compound 146, 6-(3,5-dimethyl-isoxazol-4-yl)-2-methyl-N-(1,3,5-trimethyl-1H-pyrazol-4-yl)-1H-benzo[d] imidazol-4-amine], the IC50 in series [1], in series [2], in series [3], in series [4] and in series [5] was at most 300 nM throughout.
For `Cc1nc2c(-c3c(C)noc3C)cc(-c3c(C)cnn3C)cc2[nH]1` [Example Compound 178, 4-(6-(1,4-dimethyl-1H-pyrazol-5-yl)-2-methyl-1H-benzo[d]imidazol-4-yl)-3,5-dimethylisoxazole], the IC50 in series [1] was 300 to 3000 nM; in series [2], 3000 to 30000 nM; in series [3] it was 300 to 3000 nM; in series [4] it was at most 300 nM; in series [5], 300 to 3000 nM.
As a reminder, the melting point is the temperature, or range, at which the solid turns liquid. The molecule `Cc1noc(C)c1-c1cc(-c2c(C)noc2C)c2c(C)n[nH]c2c1` [Example Compound 179, 4,4′-(3-methyl-1H-indazole-4,6-diyl)bis(3,5-dimethylisoxazole)] gave a melting point of 228 to 230 °C. In series [1], this molecule displayed an IC50 of 300 to 3000 nM. In series [2], this molecule gave an IC50 of 300 to 3000 nM. In series [5], the IC50 is at most 300 nM.
`Cc1ncccc1-c1cc(-c2c(C)noc2C)cc2[nH]c(N3CCN(C)CC3)nc12` [Example Compound 183, 3,5-dimethyl-4-(2-(4-methylpiperazin-1-yl)-4-(2-methylpyridin-3-yl)-1H-benzo[d]imidazol-6-yl)isoxazole] returned a melting point of 238 to 240 °C. The molecule also returned an IC50 in series [1] of at most 300 nM. The same molecule yielded an IC50 in series [2] of at most 300 nM. The IC50 in series [5] was at most 300 nM.
`Cc1ccc(C#N)cc1-c1cc(-c2c(C)noc2C)cc2[nH]c(N3CCN(C)CC3)nc12` [Example Compound 186, 3-(6-(3,5-dimethylisoxazol-4-yl)-2-(4-methylpiperazin-1-yl)-1H-benzo[d]imidazol-4-yl)-4-methylbenzonitrile] gave a melting point of 133 to 135 °C. The molecule also displayed an IC50 in series [1] of at most 300 nM. In addition, the IC50 in series [2] was at most 300 nM. Moreover, the IC50 in series [5] was at most 300 nM.
The molecule `Cc1ccc(C(N)=O)cc1-c1cc(-c2c(C)noc2C)cc2[nH]c(N3CCN(C)CC3)nc12` [Example Compound 189, 3-(6-(3,5-dimethylisoxazol-4-yl)-2-(4-methylpiperazin-1-yl)-1H-benzo[d]imidazol-4-yl)-4-methylbenzamide] displayed a melting point of 133 to 135 °C. The molecule also came in with an IC50 in series [1] of 300 to 3000 nM. The same molecule yielded an IC50 in series [2] of 300 to 3000 nM. The IC50 in series [5] is at most 300 nM.
On to `Cc1noc(C)c1-c1cc(-c2c(C)nn(C)c2C)c2[nH]c([S+](C)[O-])nc2c1` (stereo not drawn) [Example Compound 194, 3,5-dimethyl-4-(2-(methylsulfinyl)-4-(1,3,5-trimethyl-1H-pyrazol-4-yl)-1H-benzo[d]imidazol-6-yl)isoxazole], for which the melting point is 242 to 244 °C. In series [2], the IC50 lay within 300 to 3000 nM. The IC50 in series [5] was at most 300 nM.
